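In this assay, cells in 96-well plates receive the compound at five concentrations for 48 hours. Endpoints are linearly interpolated between the surrounding concentrations. GI50 is the concentration that inhibits growth by half.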 Calls of active or inactive are those of the source. Cut-off read from the data, not from the text of the source: active = GI50 up to about 1.1 µM and inactive = higher.
Assays:
Assay in all cases: NCI anticancer screen, dose series, 48 h
[1] = test system: SNB-19
[2] = test system: RXF 393
[3] = test system: ACHN
[4] = test system: K562
[5] = test system: SNB-75
[6] = test system: OVCAR-4
[7] = test system: OVCAR-5
[8] = test system: A498
[9] = test system: DU-145
[10] = test system: EKVX
[11] = test system: HCC 2998
[12] = test system: HOP-62
[13] = test system: NCI-H460
[14] = test system: UACC-62
[15] = test system: KM12
[16] = test system: OVCAR-8
[17] = test system: HL-60
[18] = test system: SW-620
[19] = test system: PC-3
[20] = test system: MDA-MB-231
[21] = test system: Malme-3M
[22] = test system: SF-539
[23] = test system: M14
[24] = test system: T47D
[25] = test system: NCI-H226
[26] = test system: Hs-578T
[27] = test system: SK-OV-3
[28] = test system: MCF7
[29] = test system: 786-0
[30] = test system: OVCAR-3
[31] = test system: LOX IMVI
[32] = test system: NCI-H522
[33] = test system: TK-10
[34] = test system: A549
[35] = test system: COLO 205
[36] = test system: HCT-15
[37] = test system: SK-MEL-28
[38] = test system: CAKI-1
[39] = test system: MOLT-4
[40] = test system: SR
[41] = test system: RPMI-8226
[42] = test system: MDA-MB-435
[43] = test system: U-251
[44] = test system: SK-MEL-2
[45] = test system: UACC-257
[46] = test system: SF-295
[47] = test system: HOP-92
[48] = test system: NCI-H23
[49] = test system: BT-549
[50] = test system: SN12C
[51] = test system: UO-31
[52] = test system: CCRF-CEM
[53] = test system: HCT-116
[54] = test system: HT-29
[55] = test system: SF-268

## CC1(C)OC[C@@H]([C@@]2(COC(c3ccccc3)(c3ccccc3)c3ccccc3)CC=CC(=O)O2)O1
[1]
  GI50: 58.3 µM (inactive)
[2]
  GI50: 24.2 µM (inactive)
[3]
  GI50: 30.5 µM (inactive)
[4]
  GI50: 32.8 µM (inactive)
[5]
  GI50: 14.2 µM (inactive)
[6]
  GI50: 28.2 µM (inactive)
[7]
  GI50: 42.9 µM (inactive)
[8]
  GI50: 22 µM (inactive)
[9]
  GI50: 56.2 µM (inactive)
[10]
  GI50: 30.9 µM (inactive)
[11]
  GI50: 19 µM (inactive)
[12]
  GI50: 38.5 µM (inactive)
[13]
  GI50: 32.1 µM (inactive)
[14]
  GI50: 28 µM (inactive)
[15]
  GI50: 27.9 µM (inactive)
[16]
  GI50: 33.6 µM (inactive)
[17]
  GI50: 33.7 µM (inactive)
[18]
  GI50: 40.1 µM (inactive)
[19]
  GI50: 41.3 µM (inactive)
[20]
  GI50: 41.7 µM (inactive)
[21]
  GI50: 24.7 µM (inactive)
[22]
  GI50: 37.2 µM (inactive)
[23]
  GI50: 39.7 µM (inactive)
[24]
  GI50: 48.5 µM (inactive)
[25]
  GI50: 32.7 µM (inactive)
[26]
  GI50: 46.9 µM (inactive)
[27]
  GI50: 38.8 µM (inactive)
[28]
  GI50: 21.8 µM (inactive)
[29]
  GI50: 35.1 µM (inactive)
[30]
  GI50: 35.2 µM (inactive)
[31]
  GI50: 32.4 µM (inactive)
[32]
  GI50: 18.4 µM (inactive)
[33]
  GI50: 46.5 µM (inactive)
[34]
  GI50: 40.7 µM (inactive)
[35]
  GI50: 20.1 µM (inactive)
[36]
  GI50: 31.1 µM
[37]
  GI50: 32 µM (inactive)
[38]
  GI50: 30.6 µM (inactive)
[39]
  GI50: 28.3 µM (inactive)
[40]
  GI50: 33 µM (inactive)
[41]
  GI50: 23.4 µM (inactive)
[42]
  GI50: 33.1 µM (inactive)
[43]
  GI50: 48.9 µM (inactive)
[44]
  GI50: 11.2 µM (inactive)
[45]
  GI50: 43.5 µM (inactive)
[46]
  GI50: 36.5 µM (inactive)
[47]
  GI50: 19.4 µM (inactive)
[48]
  GI50: 42.1 µM (inactive)
[49]
  GI50: 24.2 µM (inactive)
[50]
  GI50: 30.8 µM (inactive)
[51]
  GI50: 32.4 µM (inactive)
[52]
  GI50: 33.3 µM (inactive)
[53]
  GI50: 30.3 µM (inactive)
[54]
  GI50: 35 µM (inactive)
[55]
  GI50: 45.5 µM (inactive)
